Earlier results as cited in US10617673B2, “Cannabinoid receptor antagonists/inverse agonists useful for treating metabolic disorders, including obesity and diabetes” (Jenrin Discovery, LLC, priority 2012, dated 2020).

Conditions: type 2 diabetes patients not on other anti-diabetic medications, after six months, baseline value 7.9

Cc1c(C(=O)NN2CCCCC2)nn(-c2ccc(Cl)cc2Cl)c1-c1ccc(Cl)cc1 [rimonabant]
HbA1c levels lowered: 0.8%
